Source: patent US9260438B2, “Solid forms of tofacitinib salts” (APOTEX INC., priority 2014, dated 2016)
Where a name gives a salt, the structure may show the parent alone.

Assays:
[1] = physchem; settings: thermodynamic from solid
[2] = Solubility of solid forms in water (visual dissolution); settings: deionized water added drop-wise with agitation until visual dissolution of the solid; hydrochloride

Structure (SMILES) | Solubility [2] [mg/mL] | further results
C[C@@H]1CCN(C(=O)CC#N)C[C@@H]1N(C)c1ncnc2[nH]ccc12.O=C(O)CC(O)(CC(=O)O)C(=O)O [Tofacitinib citrate, 3-{(3R,4R)-4-methyl-3-[methyl-(7H-pyrrolo[2,3-d]pyrimidin-4-yl)-amino]-piperidin-1-yl}-3-oxo-propionitrile mono-citrate salt, reference compound] |  | Solubility ([1]; water): ~2 mg/mL
C[C@@H]1CCN(C(=O)CC#N)C[C@@H]1N(C)c1ncnc2[nH]ccc12 [Tofacitinib hydrochloride (APO-A), tofacitinib hydrochloride] |  | Solubility ([1]; deionized water): 2500 mg/mL
C[C@@H]1CCN(C(=O)CC#N)C[C@@H]1N(C)c1ncnc2[nH]ccc12 [Tofacitinib hydrochloride (APO-B), tofacitinib hydrochloride] | 2294 | 
C[C@@H]1CCN(C(=O)CC#N)C[C@@H]1N(C)c1ncnc2[nH]ccc12 [Tofacitinib hydrochloride (APO-C), tofacitinib hydrochloride] | 2235 | 
C[C@@H]1CCN(C(=O)CC#N)C[C@@H]1N(C)c1ncnc2[nH]ccc12 [Tofacitinib hydrochloride (APO-D), tofacitinib hydrochloride] | 2145 | 
C[C@@H]1CCN(C(=O)CC#N)C[C@@H]1N(C)c1ncnc2[nH]ccc12 [Tofacitinib hydrochloride (APO-E), tofacitinib hydrochloride] | 2235 | 
C[C@@H]1CCN(C(=O)CC#N)C[C@@H]1N(C)c1ncnc2[nH]ccc12 [Tofacitinib hydrochloride (APO-G), tofacitinib hydrochloride] | 2000 | 
